These are literature values, as cited in patent publication US20220127231A1, “PROCESS FOR THE PREPARTION OF AMIFAMPRIDINE PHOSPHATE” (SHILPA MEDICARE LTD, priority 2020, published 2022).

For series [1] the following is noted: 1% solution in water at 25° C.

For `Nc1ccncc1N` [Amifampridine phosphate], the “solubility in dimethyl sulfoxide” value (dimethyl sulfoxide) was “slightly soluble”. Also, the solubility in dimethylformamide entry (dimethylformamide) is given as “very slightly soluble”. The solubility in ethanol result (ethanol) was “very slightly soluble”. Further, the “solubility in glacial acetic acid” value (glacial acetic acid) was “slightly soluble”. The solubility in methanol entry (methanol) was “slightly soluble”. For the same compound, the solubility in water entry (water) is “practically soluble”. The “pH of 1% solution in water” value in series [1] is on record as 4.6±0.2.
